Assay results taken from patent US6737383B1, “Herbicidal oxadiazolidines” (priority 1999, dated 2004).

Experiments:
[1] = system: sugar beet; test: Test B pre/postemergence sugar beet; assay type: in vivo, Beta vulgaris
How it was run: (§1)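 Response is a visual 0-to-10 score relative to untreated plants, where 0 means no effect and 10 means complete control, taken twelve to sixteen days after application. Treatments went onto soil at planting and onto foliage of 1- to 4-leaf plants, using a surfactant-containing non-phytotoxic solvent.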

[2] = system: wheat; test: Test B pre/postemergence wheat; assay type: in vivo, Triticum aestivum
How it was run: as §1

[3] = system: blackgrass; test: Test B pre/postemergence blackgrass; assay type: in vivo, Alopecurus myosuroides
How it was run: as §1

[4] = system: rape; test: Test B pre/postemergence rape; assay type: in vivo, Brassica napus
How it was run: as §1

[5] = system: rice; test: Test B flood test rice; assay type: in vivo, Oryza sativa
How it was run: (§2)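 Each value is a visual injury score relative to controls, with 10 meaning complete control and 0 no effect. Evaluation took place twelve to sixteen days after the 2-leaf-stage plants were treated and kept in the greenhouse.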

[6] = system: corn; test: Test B pre/postemergence corn; assay type: in vivo, Zea mays
How it was run: as §1

[7] = system: bamyardgrass; test: Test B flood test barnyardgrass; assay type: in vivo, Echinochloa crus-galli
How it was run: as §2

[8] = system: wild oat; test: Test B pre/postemergence wild oat; assay type: in vivo, Avena fatua
How it was run: as §1

[9] = system: surinam grass; test: Test B pre/postemergence surinam grass; assay type: in vivo, Brachiaria decumbens
How it was run: as §1

[10] = system: giant foxtail; test: Test B pre/postemergence giant foxtail; assay type: in vivo, Setaria faberii
How it was run: as §1

[11] = system: bedstraw; test: Test B pre/postemergence bedstraw; assay type: in vivo, Galium aparine
How it was run: as §1

[12] = system: purple nutsedge; test: Test B pre/postemergence purple nutsedge; assay type: in vivo, Cyperus rotundus
How it was run: as §1

[13] = system: velvetleaf; test: Test B pre/postemergence velvetleaf; assay type: in vivo, Abutilon theophrasti
How it was run: as §1

[14] = system: crabgrass; test: Test B pre/postemergence crabgrass; assay type: in vivo, Digitaria sanguinalis
How it was run: as §1

[15] = system: duck salad; test: Test B flood test duck salad; assay type: in vivo, Heteranthera limosa
How it was run: as §2

[16] = system: smallflower flatsedge; test: Test B flood test smallflower flatsedge; assay type: in vivo, Cyperus difformis
How it was run: as §2

[17] = Postemergence, Rate 62 g/ha, scale 0 to 10, 0 is no effect, 10 is complete control
[18] = Postemergence, Rate 250 g/ha, scale 0 to 10, 0 no effect, 10 complete control
[19] = Preemergence, Rate 31 g/ha, visual rating, scale 0 to 10 (0 no effect, 10 complete control)
[20] = Preemergence, Rate 62 g/ha, scale 0 to 10, 0 is no effect, 10 is complete control
[21] = Preemergence, Rate 125 g/ha, scale 0 to 10 (0 no effect, 10 complete control)
[22] = Preemergence, Rate 250 g/ha, scale of 0 to 10 where 0 is no effect and 10 is complete control
[23] = Rate 125 g/ha, Postemergence, scale 0 to 10, 0 no effect, 10 complete control
[24] = Rate 31 g/ha, Postemergence, scale 0 to 10
[25] = Rate 31 g/ha, Postemergence section (flood test species), scale 0 to 10
[26] = Rate 125 g/ha, Postemergence section (flood test species), scale 0 to 10, 0 no effect, 10 complete control
[27] = flood test, listed under Postemergence, Rate 250 g/ha, scale 0 to 10, 0 no effect, 10 complete control

`CC(C)N(C(=O)n1oc(=O)n(-c2ccc(F)cc2F)c1=O)c1ccc(F)cc1F` [Compound 22] was tested, and the “Sugarbeets plant response rating” value [1, 17] was 0, the “Sugarbeets plant response rating” value [1, 18] was 0 and the “Sugarbeets plant response rating” value [1, 19] was 0. For the same compound, the “Plant response rating, Sugarbeets” value [1, 20] was 0, the “Plant response rating, Sugarbeets” value [1, 21] was 4 and the “Plant response rating, Sugarbeets” value [1, 22] was 7. The “Sugarbeets plant response rating” value [1, 23] was 0, the “Wheat plant response rating” value [2, 17] was 0 and the “Wheat plant response rating” value [2, 18] was 0. The “Wheat plant response rating” value [2, 19] was 0, the “Plant response rating, Wheat” value [2, 20] was 0 and the “Plant response rating, Wheat” value [2, 21] was 0. For the same compound, the “Plant response rating, Wheat” value [2, 22] was 0, the “Wheat plant response rating” value [2, 23] was 0 and the “Blackgrass plant response rating” value [3, 17] was 1. The “Blackgrass plant response rating” value [3, 18] was 3, the “Blackgrass plant response rating” value [3, 19] was 0 and the “Plant response rating, Blackgrass” value [3, 20] was 0. For the same compound, the “Plant response rating, Blackgrass” value [3, 21] was 4, the “Plant response rating, Blackgrass” value [3, 22] was 6 and the “Blackgrass plant response rating” value [3, 24] was 0. The “Blackgrass plant response rating” value [3, 23] was 1, the “Rape plant response rating” value [4, 17] was 0 and the “Rape plant response rating” value [4, 18] was 0. The “Rape plant response rating” value [4, 19] was 0, the “Plant response rating, Rape” value [4, 20] was 0 and the “Plant response rating, Rape” value [4, 21] was 3. For the same compound, the “Plant response rating, Rape” value [4, 22] was 3, the “Rape plant response rating” value [4, 24] was 0 and the “Rape plant response rating” value [4, 23] was 0. For the same compound, the “Rice plant response rating” value [5, 17] was 0, the “Rice plant response rating” value [5, 25] was 0 and the “Rice plant response rating” value [5, 26] was 0. For the same compound, the “Rice plant response rating” value [5, 27] was 0, the “Corn plant response rating” value [6, 17] was 0 and the “Corn plant response rating” value [6, 18] was 0. For the same compound, the “Corn plant response rating” value [6, 19] was 0, the “Plant response rating, Corn” value [6, 20] was 0 and the “Plant response rating, Corn” value [6, 21] was 0. For the same compound, the “Plant response rating, Corn” value [6, 22] was 2, the “Corn plant response rating” value [6, 24] was 0 and the “Corn plant response rating” value [6, 23] was 0. For the same compound, the “Barnyardgrass plant response rating” value [7, 17] was 0, the “Barnyardgrass plant response rating” value [7, 25] was 0 and the “Barnyardgrass plant response rating” value [7, 26] was 0. For the same compound, the “Barnyardgrass plant response rating” value [7, 27] was 0, the “Wild oats plant response rating” value [8, 17] was 0 and the “Wild oats plant response rating” value [8, 18] was 1. For the same compound, the “Wild oats plant response rating” value [8, 19] was 0, the “Plant response rating, Wild oats” value [8, 21] was 0 and the “Plant response rating, Wild oats” value [8, 22] was 0. For the same compound, the “Wild oats plant response rating” value [8, 23] was 0, the “B. signalgrass plant response rating” value [9, 17] was 0 and the “B. signalgrass plant response rating” value [9, 18] was 2. For the same compound, the “B. signalgrass plant response rating” value [9, 19] was 0, the “Plant response rating, B. signalgrass” value [9, 20] was 0 and the “Plant response rating, B. signalgrass” value [9, 21] was 2. The “Plant response rating, B. signalgrass” value [9, 22] was 4, the “B. signalgrass plant response rating” value [9, 24] was 0 and the “B. signalgrass plant response rating” value [9, 23] was 0. For the same compound, the “Giant foxtail plant response rating” value [10, 17] was 0, the “Giant foxtail plant response rating” value [10, 18] was 4 and the “Giant foxtail plant response rating” value [10, 19] was 3. The “Plant response rating, Giant foxtail” value [10, 20] was 3, the “Plant response rating, Giant foxtail” value [10, 21] was 4 and the “Plant response rating, Giant foxtail” value [10, 22] was 7. For the same compound, the “Giant foxtail plant response rating” value [10, 24] was 0, the “Giant foxtail plant response rating” value [10, 23] was 2 and the “Bedstraw plant response rating” value [11, 17] was 1. The “Bedstraw plant response rating” value [11, 18] was 4, the “Bedstraw plant response rating” value [11, 19] was 0 and the “Plant response rating, Bedstraw” value [11, 20] was 0. For the same compound, the “Plant response rating, Bedstraw” value [11, 21] was 0, the “Plant response rating, Bedstraw” value [11, 22] was 4 and the “Bedstraw plant response rating” value [11, 24] was 0. For the same compound, the “Bedstraw plant response rating” value [11, 23] was 2, the “Nutsedge plant response rating” value [12, 17] was 0 and the “Nutsedge plant response rating” value [12, 18] was 0. For the same compound, the “Nutsedge plant response rating” value [12, 19] was 0, the “Plant response rating, Nutsedge” value [12, 20] was 0 and the “Plant response rating, Nutsedge” value [12, 21] was 0. For the same compound, the “Plant response rating, Nutsedge” value [12, 22] was 0, the “Nutsedge plant response rating” value [12, 24] was 0 and the “Nutsedge plant response rating” value [12, 23] was 0. For the same compound, the “Velvetleaf plant response rating” value [13, 17] was 0, the “Velvetleaf plant response rating” value [13, 18] was 0 and the “Velvetleaf plant response rating” value [13, 19] was 0. For the same compound, the “Plant response rating, Velvetleaf” value [13, 20] was 0, the “Plant response rating, Velvetleaf” value [13, 21] was 0 and the “Plant response rating, Velvetleaf” value [13, 22] was 1. For the same compound, the “Velvetleaf plant response rating” value [13, 23] was 0, the “Crabgrass plant response rating” value [14, 17] was 0 and the “Crabgrass plant response rating” value [14, 18] was 9. For the same compound, the “Crabgrass plant response rating” value [14, 19] was 3, the “Plant response rating, Crabgrass” value [14, 20] was 3 and the “Plant response rating, Crabgrass” value [14, 21] was 4. For the same compound, the “Plant response rating, Crabgrass” value [14, 22] was 8, the “Crabgrass plant response rating” value [14, 24] was 0 and the “Crabgrass plant response rating” value [14, 23] was 4. The “Ducksalad plant response rating” value [15, 17] was 0, the “Ducksalad plant response rating” value [15, 25] was 0 and the “Ducksalad plant response rating” value [15, 26] was 0. For the same compound, the “Ducksalad plant response rating” value [15, 27] was 0, the “S. Flatsedge plant response rating” value [16, 17] was 0 and the “S. Flatsedge plant response rating” value [16, 26] was 0. The “S. Flatsedge plant response rating” value [16, 27] was 4.
